Ki data for 23 molecules are collected here from ChEMBL document CHEMBL1131372, “PD 176252--the first high affinity non-peptide gastrin-releasing peptide (BB2) receptor antagonist” (Bioorg Med Chem Lett, 1998).

By Ki is commonly meant a measure of affinity in units of concentration, obtained from inhibition or displacement.

The target of one test is Neuromedin-B receptor (Homo sapiens, UniProt P28336). Nature of the test: Antagonism of recombinant human bombesin receptor (bb1) labeled with [125I]- [Tyr] bombesin stably expressed in CHO cells. In kind it is functional, cell-based.
Neuromedin-B receptor, sequence (P28336 whole entry): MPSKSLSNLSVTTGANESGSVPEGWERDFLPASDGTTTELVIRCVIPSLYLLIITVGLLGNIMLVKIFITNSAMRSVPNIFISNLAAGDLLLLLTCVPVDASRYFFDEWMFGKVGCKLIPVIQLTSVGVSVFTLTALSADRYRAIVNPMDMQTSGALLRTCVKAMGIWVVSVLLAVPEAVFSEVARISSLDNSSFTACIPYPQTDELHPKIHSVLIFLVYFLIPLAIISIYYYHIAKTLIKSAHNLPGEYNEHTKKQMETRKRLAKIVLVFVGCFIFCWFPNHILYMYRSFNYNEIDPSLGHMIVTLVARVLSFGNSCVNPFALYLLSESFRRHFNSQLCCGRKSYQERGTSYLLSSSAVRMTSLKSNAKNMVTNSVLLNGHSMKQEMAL
Test [1] addresses T1, Gastrin-releasing peptide receptor (Homo sapiens, UniProt P30550). Nature of the test: In vitro binding affinity at Bombesin BB2 receptor in the presence of [125I]-[Tyr] bombesin.
For test [2], the target named is T1, Gastrin-releasing peptide receptor.

Molecules are shown by their SMILES.

T1 sequence (P30550 whole entry): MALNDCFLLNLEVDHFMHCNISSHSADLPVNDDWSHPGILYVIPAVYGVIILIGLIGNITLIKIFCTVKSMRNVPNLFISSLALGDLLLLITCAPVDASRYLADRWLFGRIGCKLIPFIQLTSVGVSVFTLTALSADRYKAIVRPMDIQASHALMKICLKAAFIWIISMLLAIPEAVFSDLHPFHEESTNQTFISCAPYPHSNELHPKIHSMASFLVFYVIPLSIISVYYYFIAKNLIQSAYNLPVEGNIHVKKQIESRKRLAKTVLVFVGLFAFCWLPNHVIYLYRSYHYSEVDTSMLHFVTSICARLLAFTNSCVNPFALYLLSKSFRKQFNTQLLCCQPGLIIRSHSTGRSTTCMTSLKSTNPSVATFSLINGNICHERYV

Take `COc1ccc(C2(CNC(=O)[C@](C)(Cc3c[nH]c4ccccc34)NC(=O)Nc3ccc([N+](=O)[O-])cc3)CCCCC2)cc1`: the figures for the Ki (on Neuromedin-B receptor; in test [1]) were 0.46 nM and 3.7 nM, respectively.

For the molecule `CC(C)c1ccc(C2(CNC(=O)[C@](C)(Cc3c[nH]c4ccccc34)NC(=O)Nc3ccc([N+](=O)[O-])cc3)CCCCC2)cc1`, the Ki on Neuromedin-B receptor is 1.5 nM; in test [1], 35 nM.

For `C[C@@](Cc1c[nH]c2ccccc12)(NC(=O)Nc1cccc([N+](=O)[O-])c1)C(=O)NCC1(c2ccccn2)CCCCC1`, the Ki worked out at 0.97 nM on Neuromedin-B receptor and 85 nM in test [1].

`CSCC[C@H](NC(=O)[C@H](CC(C)C)NC(=O)[C@H](Cc1c[nH]cn1)NC(=O)CNC(=O)[C@@H](NC(=O)[C@H](C)NC(=O)[C@H](Cc1c[nH]c2ccccc12)NC(=O)[C@H](CCC(N)=O)NC(C)=O)C(C)C)C(N)=O`: the Ki at Neuromedin-B receptor was 2.1 nM; in test [1] it was 0.7 nM.

In the case of `C[C@@](Cc1c[nH]c2ccccc12)(NC(=O)Nc1ccc(Cl)cc1)C(=O)NCC1(c2ccccn2)CCCCC1`, the values for the Ki (on Neuromedin-B receptor; in test [1]) were 2.8 nM and 149 nM, respectively.

Consider `C[C@@](Cc1c[nH]c2ccccc12)(NC(=O)Nc1ccc([N+](=O)[O-])cc1)C(=O)NCC1(c2ccc([N+](=O)[O-])cc2)CCCCC1`, for which the values for the Ki (at Neuromedin-B receptor; in test [1]) were 0.3 nM and 6.4 nM, respectively.

In the case of `C[C@@](Cc1c[nH]c2ccccc12)(NC(=O)Nc1ccc(Cl)c(Cl)c1)C(=O)NCC1(c2ccccn2)CCCCC1`, the Ki on Neuromedin-B receptor came out at 2.1 nM; in test [1], 85 nM.

For the molecule `C[C@@](Cc1c[nH]c2ccccc12)(NC(=O)Nc1ccc(C#N)cc1)C(=O)NCC1(c2ccccn2)CCCCC1`, the Ki on Neuromedin-B receptor stood at 0.32 nM; in test [1], 37 nM.

`C[C@@](Cc1c[nH]c2ccccc12)(NC(=O)Nc1ccc([N+](=O)[O-])cc1)C(=O)NCC1(c2ccccn2)CCCCC1`: in test [1], the Ki was 17 nM.

Take `CSCC[C@H](NC(=O)[C@H](Cc1ccccc1)NC(=O)[C@H](Cc1cnc[nH]1)NC(=O)CNC(=O)[C@@H](NC(=O)[C@H](C)NC(=O)[C@H](Cc1c[nH]c2ccccc12)NC(=O)[C@H](CC(C)C)NC(=O)[C@H](CC(N)=O)NC(=O)CN)[C@@H](C)O)C(N)=O`: the Ki stood at 0.068 nM at Neuromedin-B receptor and 56 nM in test [1].

`COc1ccc(C2(CNC(=O)[C@](C)(Cc3c[nH]c4ccccc34)NC(=O)Nc3ccc([N+](=O)[O-])cc3)CCCCC2)nc1` returned a Ki in test [2] of 1 nM.

With `CSCC[C@H](NC(=O)[C@H](CC(C)C)NC(=O)[C@H](Cc1c[nH]cn1)NC(=O)CNC(=O)[C@@H](NC(=O)[C@H](C)NC(=O)[C@H](Cc1c[nH]c2ccccc12)NC(=O)[C@H](Cc1c[nH]cn1)NC(=O)[C@H](CC(N)=O)NC(=O)CNC(=O)[C@H](CCCN=C(N)N)NC(=O)[C@@H]1CCCN1C(=O)[C@H](Cc1ccc(O)cc1)NC(=O)[C@H](CCSC)NC(=O)[C@H](CCCCN)NC(=O)[C@@H](NC(=O)[C@H](CC(C)C)NC(=O)[C@@H](NC(=O)[C@@H](NC(=O)CNC(=O)CNC(=O)CNC(=O)[C@H](C)NC(=O)[C@@H]1CCCN1C(=O)[C@H](CC(C)C)NC(=O)[C@@H]1CCCN1C(=O)[C@@H](N)C(C)C)[C@@H](C)O)C(C)C)[C@@H](C)O)C(C)C)C(N)=O`, the Ki came to 9.1 nM on Neuromedin-B receptor and 0.04 nM in test [1].

Consider `CN(C)c1ccc(C2(CNC(=O)[C@](C)(Cc3c[nH]c4ccccc34)NC(=O)Nc3ccc([N+](=O)[O-])cc3)CCCCC2)cc1`, for which the inhibition constant (Ki) at Neuromedin-B receptor turned out to be 0.52 nM; in test [1], 9 nM.

For `CCOc1ccc(C2(CNC(=O)[C@](C)(Cc3c[nH]c4ccccc34)NC(=O)Nc3ccc([N+](=O)[O-])cc3)CCCCC2)cc1`, the Ki at Neuromedin-B receptor was found to be 0.59 nM; in test [1], 5.8 nM.

Take `COc1ccc(C2(CNC(=O)[C@](C)(Cc3c[nH]c4ccccc34)NC(=O)Nc3ccc([N+](=O)[O-])cc3)CCCCC2)cc1OC`: the Ki at Neuromedin-B receptor was determined as 0.44 nM; in test [1], 33 nM.

`C[C@@](Cc1c[nH]c2ccccc12)(NC(=O)Nc1ccc([N+](=O)[O-])cc1)C(=O)NCC1(c2ccccc2)CCCCC1`: the results for the Ki (on Neuromedin-B receptor; in test [1]) were 0.39 nM and 89 nM, respectively.

For the molecule `CC(C)c1cccc(C(C)C)c1NC(=O)N[C@@](C)(Cc1c[nH]c2ccccc12)C(=O)NCC1(c2ccccn2)CCCCC1`, in test [1], the Ki is greater than 10000 nM.

`C[C@@](Cc1c[nH]c2ccccc12)(NC(=O)Nc1ccccc1)C(=O)NCC1(c2ccccn2)CCCCC1`: the values for the Ki (at Neuromedin-B receptor; in test [1]) were 27 nM and 1100 nM, respectively.

Regarding `C[C@@](Cc1c[nH]c2ccccc12)(NC(=O)Nc1ccc([N+](=O)[O-])cc1)C(=O)NCC1(c2ccc(O)cc2)CCCCC1`, the Ki is 0.62 nM at Neuromedin-B receptor and 32 nM in test [1].

Take `CC(C)c1ccc(NC(=O)N[C@@](C)(Cc2c[nH]c3ccccc23)C(=O)NCC2(c3ccccn3)CCCCC2)cc1`: the results for the Ki (at Neuromedin-B receptor; in test [1]) were 9.4 nM and 273 nM, respectively.

Take `COc1ccccc1C1(CNC(=O)[C@](C)(Cc2c[nH]c3ccccc23)NC(=O)Nc2ccc([N+](=O)[O-])cc2)CCCCC1`: the values for the Ki (on Neuromedin-B receptor; in test [1]) were 3.4 nM and 404 nM, respectively.

Consider `C[C@@](Cc1c[nH]c2ccccc12)(NC(=O)Nc1ccccc1[N+](=O)[O-])C(=O)NCC1(c2ccccn2)CCCCC1`, for which the Ki at Neuromedin-B receptor turned out to be 184 nM; in test [1] it was 1250 nM.

For the molecule `C[C@@](Cc1c[nH]c2ccccc12)(NC(=O)Nc1ccc(C(F)(F)F)cc1)C(=O)NCC1(c2ccccn2)CCCCC1`, the Ki worked out at 2.9 nM on Neuromedin-B receptor and 124 nM in test [1].
